Measurements reported in patent US7601674B2, “α-oxygenated or α-thiolated carboxylic acid phenethylamide derivatives” (priority 2001, dated 2009).

Tests used:
Format in all cases: in vivo
Plasmopara viticola [1] = assay: D-1a Action against Plasmopara viticola on vines, residual-protective action; settings: vine seedlings, test D-1a residual-protective, untreated plants attack 80-100%, read-out: inhibition of fungal infestation
Protocol: (§1) D-1: Action Against Plasmopara viticola on Vines
(§2) a) Residual-protective Action
Vine seedlings are sprayed at the 4- to 5-leaf stage with a spray mixture (0.02% active ingredient) prepared from a wettable powder formulation of the test compound. After 24 hours, the treated plants are infected with a sporangia suspension of the fungus. Fungus infestation is evaluated after incubation for 6 days at 95-100% relative humidity and +20° C.

Plasmopara viticola [2] = assay: D-1b Action against Plasmopara viticola on vines, residual-curative action; settings: vine seedlings, test D-1b residual-curative, untreated plants attack 80-100%, read-out: inhibition of fungal infestation
Protocol: as §1
b) Residual-curative Action
Vine seedlings are infected at the 4- to 5-leaf stage with a sporangia suspension of the fungus. After incubation for 24 hours in a humidity chamber at 95-100% relative humidity and […], the infected plants are dried and sprayed with a spray mixture (0.02% active ingredient) prepared from a wettable powder formulation of the test compound. After the spray coating has dried, the treated plants are placed in the humidity chamber again. Fungus infestation is evaluated 6 days after infection.

Phytophthora [3] = assay: D-2a Action against Phytophthora on tomato plants, residual-protective action; settings: test D-2a residual-protective, untreated plants attack 80-100%, read-out: inhibition of fungal infestation
Protocol: (§3) D-2: Action Against Phytophthora on Tomato Plants
as §2
After a cultivation period of 3 weeks, tomato plants are sprayed with a spray mixture (0.02% active ingredient) prepared from a wettable powder formulation of the test compound. After 48 hours, the treated plants are infected with a sporangia suspension of the fungus. Fungus infestation is evaluated after incubation of the infected plants for 5 days at 90-100% relative humidity and +20° C.

Phytophthora [4] = assay: D-2b Action against Phytophthora on tomato plants, systemic action; settings: test D-2b systemic (soil drench), untreated plants attack 80-100%, read-out: inhibition of fungal infestation
Protocol: as §3
After a cultivation period of 3 weeks, tomato plants are watered with a spray mixture (0.02% active ingredient based on the volume of the soil) prepared from a wettable powder formulation of the test compound. […] After 96 hours, the treated plants are infected with a sporangia suspension of the fungus. Fungus infestation is evaluated after incubation of the infected plants for 4 days at 90-100% relative humidity and +20° C.

Phytophthora [5] = assay: D-3a Action against Phytophthora on potato plants, residual-protective action; settings: potato plants (Bintje), test D-3a residual-protective, untreated plants attack 80-100%, read-out: inhibition of fungal infestation
Protocol: (§4) D-3: Action Against Phytophthora on Potato Plants
as §2
2-3 week old potato plants (Bintje variety) are sprayed with a spray mixture (0.02% active ingredient) prepared from a wettable powder formulation of the test compound. After 48 hours, the treated plants are infected with a sporangia suspension of the fungus. Fungus infestation is evaluated after incubation of the infected plants for 4 days at 90-100% relative humidity and +20° C.

Phytophthora [6] = assay: D-3b Action against Phytophthora on potato plants, systemic action; settings: potato plants (Bintje), test D-3b systemic (soil drench), untreated plants attack 80-100%, read-out: inhibition of fungal infestation
Protocol: as §4
2-3 week old potato plants (Bintje variety) are watered with a spray mixture (0.02% active ingredient based on the volume of the soil) prepared from a wettable powder formulation of the test compound. […] After 48 hours, the treated plants are infected with a sporangia suspension of the fungus. Fungus infestation is evaluated after incubation of the infected plants for 4 days at 90-100% relative humidity and +20° C. Fungal infestation is effectively controlled with compounds of Tables 1 to 64.

Measured: inhibition at 200 ppm

C#CCOc1ccc(CCNC(=O)C(COc2ccc(Cl)cc2)OCC#C)cc1OC (stereo not shown) [Compound E1.26]
80 to 100%: all assays above

C#CCOc1ccc(CCNC(=O)C(O)COc2ccc(Cl)cc2)cc1OC (stereo not shown) [Compound E1.24, 3-(4-Chloro-phenoxy)-2-hydroxy-N-[2-(3-methoxy-4-prop-2-ynyloxy-phenyl)-ethyl]-propionamide]
80 to 100%: Plasmopara viticola [1] | Plasmopara viticola [2] | Phytophthora [3] | Phytophthora [4]
